Experimental data published in patent US7666875B2, “Hydantoin compounds” (Eisai R&D Management Co., Ltd., priority 2005, dated 2010).

Target: T1, human T-bet (Homo sapiens, UniProt Q9UL17)
T1 construct: expressed in transfected cells; host or cells: engineered HEK cells (HEKT-bet)
T1 sequence (Q9UL17 1-535): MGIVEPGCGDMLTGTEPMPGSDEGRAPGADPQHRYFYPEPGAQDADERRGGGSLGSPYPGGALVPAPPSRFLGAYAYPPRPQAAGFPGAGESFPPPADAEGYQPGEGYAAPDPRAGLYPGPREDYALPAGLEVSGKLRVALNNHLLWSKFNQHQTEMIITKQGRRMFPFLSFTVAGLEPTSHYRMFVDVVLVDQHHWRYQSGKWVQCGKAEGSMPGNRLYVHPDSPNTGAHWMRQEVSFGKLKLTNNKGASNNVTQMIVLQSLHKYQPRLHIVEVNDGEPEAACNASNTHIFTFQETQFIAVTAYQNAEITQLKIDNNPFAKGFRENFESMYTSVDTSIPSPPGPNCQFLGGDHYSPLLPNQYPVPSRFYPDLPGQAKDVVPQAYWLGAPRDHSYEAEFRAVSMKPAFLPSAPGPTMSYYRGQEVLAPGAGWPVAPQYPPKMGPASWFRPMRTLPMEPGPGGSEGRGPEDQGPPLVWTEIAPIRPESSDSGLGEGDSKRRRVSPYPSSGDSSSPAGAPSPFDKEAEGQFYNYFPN
Test: HEKT-bet-luc assay (T-bet dependent luciferase reporter in engineered HEK cells)
Assay type: cell-based
Details: Table 4; HEKT-bet cells, compound 24 hours; IC50 normalized to reference ER-213038; read-out: IC50
Description: HEKT-bet-luc assay: This assay measures a T-bet dependent reporter (luciferase) activity in engineered HEK cells that express a human T-bet and a T-box responsive element driving luciferase reporter. HEKT-bet cells were plated at 2×10^4/well in 96-well plate and compound was added into cell culture for 24 hours. Luciferase activity was measured by adding 50 μl of Steady-Glo reagent (Promega) and samples were read in Victor V reader (PerkinElmer). The IC50 values were calculated utilizing a maximum value corresponding to the amount of luciferase in the absence of a test compound and a minimum value corresponding to a test compound value obtained at maximum inhibition.
Determination of Normalized HEKT-bet IC50 values: Compounds were assayed in microtiter plates. Each plate included a reference compound which was ER-213038. The un-normalized IC50 value for a particular compound was divided by the IC50 value determined for the reference compound in the same microtiter plate to provide a relative potency value. The relative potency value was then multiplied by the established potency of the reference compound to provide the normalized HEKT-bet IC50 value. […] The IC50 values provided herein were obtained using this normalization method.

Compound	IC50 [nM]
COCCN1C(=O)N(C/C=C/c2ccccc2C)C(=O)C12CCN(Cc1ccccc1)CC2 [Example 226]	373
COCCN1C(=O)N(Cc2cccc(OC)c2)C(=O)C12CCN(Cc1cc3ccccc3nc1Cl)CC2 [Example 227]	373
COCCN1C(=O)N(Cc2cccc(OC)c2)C(=O)C12CCN(Cc1ccc(C)cc1C)CC2 [Example 228]	374
COc1cccc(CN2C(=O)N(Cc3cccc(-n4cccc4)c3)C3(CCN(Cc4cccc5ccccc45)CC3)C2=O)c1 [Example 229]	377
COCCN1C(=O)N(Cc2cccc(OC)c2)C(=O)C12CCN(Cc1cccc(N3CCOCC3)c1)CC2 [Example 230]	379
COc1cccc(CN2C(=O)N(Cc3ccc4c(c3)nnn4C)C3(CCN(Cc4cccc5ccccc45)CC3)C2=O)c1 [Example 231]	385
COCCN1C(=O)N(CCCOc2ccccc2)C(=O)C12CCN(Cc1ccc3ccccc3c1)CC2 [Example 232]	385
COCCN1C(=O)N(Cc2cccc(OC)c2)C(=O)C12CCN(Cc1cccc(C)c1)CC2 [Example 233]	386
COCCN1C(=O)N(Cc2cccc(OC)c2)C(=O)C12CCN(Cc1ccccc1)CC2 [Example 234]	387
COCCN1C(=O)N(Cc2cccc(OC)c2)C(=O)C12CCN(Cc1cccc(Cl)c1)CC2 [Example 235]	390
COCCN1C(=O)N(Cc2ccc(OC(F)(F)F)cc2)C(=O)C12CCN(Cc1ccccc1)CC2 [Example 236]	395
COCCN1C(=O)N(Cc2cc(OC)cc(OC)c2)C(=O)C12CCN(Cc1cccc(OC)c1)CC2 [Example 237]	414
COCCN1C(=O)N(Cc2cccc(OC)c2)C(=O)C12CCN(Cc1cccc(-c3ccc(NC(C)=O)cc3)c1)CC2 [Example 238]	414
COCCN1C(=O)N(Cc2cccc(OC)c2)C(=O)C12CCN(Cc1cccc(OC)c1)CC2 [Example 239]	417
O=C1N(C/C=C/c2ccccc2)C(=O)C2(CCN(Cc3cccc4ccccc34)CC2)N1Cc1ccccn1 [Example 240]	420
COc1cccc(CN2C(=O)N(Cc3ccccn3)C3(CCN(Cc4cccc5ccccc45)CC3)C2=O)c1 [Example 241]	424
COCCN1C(=O)N(Cc2cccc(OC)c2)C(=O)C12CCN(Cc1cccc3cccnc13)CC2 [Example 242]	424
COCCN1C(=O)N(Cc2cccc(-c3ccccc3)c2)C(=O)C12CCN(Cc1ccccc1)CC2 [Example 243]	431
COCCN1C(=O)N(Cc2cccc(OC)c2)C(=O)C12CCN(Cc1cc(OC)c3c(c1)OCO3)CC2 [Example 244]	432
COCCN1C(=O)N(Cc2cccc(OC)c2)C(=O)C12CCN(Cc1nn(-c3ccccc3)nc1C)CC2 [Example 245]	432

Compound	IC50 [nM]
COCCN1C(=O)N(CCCC2CCCCC2)C(=O)C12CCN(Cc1ccccc1)CC2 [Example 246]	435
O=C1N(C/C=C/c2ccccc2)C(=O)C2(CCN(Cc3cccc4ccccc34)CC2)N1Cc1cccc2cccnc12 [Example 247]	436
COCCN1C(=O)N(CCCc2ccccc2)C(=O)C12CCN(Cc1cccc(C)c1)CC2 [Example 248]	438
COCCCN1C(=O)N(Cc2cccc(OC)c2)C(=O)C12CCN(Cc1cc(OC)cc(OC)c1)CC2 [Example 249]	441
COCCN1C(=O)N(Cc2ccc3ccccc3c2)C(=O)C12CCN(Cc1ccc3ccccc3c1)CC2 [Example 250]	442
O=C1N(C/C=C/c2ccccc2)C(=O)C2(CCN(Cc3cccc4ccccc34)CC2)N1CCn1cccc1 [Example 251]	447
CCN1C(=O)N(CCCc2ccccc2)C(=O)C12CCN(Cc1cccc(C)c1)CC2 [Example 252]	448
COCCN1C(=O)N(Cc2cc(F)cc(F)c2)C(=O)C12CCN(Cc1cc(OC)cc(OC)c1)CC2 [Example 253]	450
COCCN1C(=O)N(Cc2cccc(OC)c2)C(=O)C12CCN(Cc1cccc(-c3ccco3)c1)CC2 [Example 254]	451
COCCN1C(=O)N(Cc2cccc(OC)c2)C(=O)C12CCN(Cc1cc(OC)ccc1F)CC2 [Example 255]	452
COCCN1C(=O)N(Cc2cccc(-n3cccc3)c2)C(=O)C12CCN(Cc1ccccc1)CC2 [Example 256]	469
COCCN1C(=O)N(Cc2cccc(OC)c2)C(=O)C12CCN(Cc1ccc3c(c1)Cc1ccccc1-3)CC2 [Example 257]	479
COCCN1C(=O)N(Cc2cccc(OC)c2)C(=O)C12CCN(Cc1cccc(-c3ccoc3)c1)CC2 [Example 258]	481
COCCN1C(=O)N(Cc2cccc(OC)c2)C(=O)C12CCN(Cc1cccc(-c3cccc(OC)c3)c1)CC2 [Example 259]	484
CCN1C(=O)N(CCCOc2ccccc2)C(=O)C12CCN(Cc1cccc3ccccc13)CC2 [Example 260]	486
C#CCOc1ccc(CN2CCC3(CC2)C(=O)N(Cc2cccc(OC)c2)C(=O)N3CCOC)cc1OC [Example 261]	490
CCOc1ccccc1CN1CCC2(CC1)C(=O)N(Cc1cccc(OC)c1)C(=O)N2CCOC [Example 262]	495
COCCN1C(=O)N(Cc2ccc3ccccc3c2)C(=O)C12CCN(Cc1ccccc1)CC2 [Example 263]	498
C=Cc1cccc(CN2CCC3(CC2)C(=O)N(Cc2cccc(OC)c2)C(=O)N3CCOC)c1 [Example 264]	500

Continued, values first:

IC50 [nM]	Compound
290	COc1cccc(CN2C(=O)N(Cc3cccc(OC)c3)C3(CCN(Cc4cc(OC)cc(OC)c4)CC3)C2=O)c1 [Example 202]
291	COCCN1C(=O)N(Cc2cccc(OC)c2)C(=O)C12CCN(Cc1cccc(OC(F)(F)F)c1)CC2 [Example 203]
298	O=C1N(C/C=C/c2ccccc2)C(=O)C2(CCN(Cc3cccc4ccccc34)CC2)N1CCO [Example 204]
298	COCCN1C(=O)N(C/C=C/c2cccc(C)c2)C(=O)C12CCN(Cc1ccccc1)CC2 [Example 205]
311	COCN1C(=O)N(C/C=C/c2ccccc2)C(=O)C12CCN(Cc1cccc3ccccc13)CC2 [Example 206]
317	COCCCN1C(=O)N(Cc2cc(OC)cc(OC)c2)C(=O)C12CCN(Cc1cc(OC)cc(OC)c1)CC2 [Example 207]
317	COCCN1C(=O)N(CCCOc2ccccc2)C(=O)C12CCN(Cc1cccc(C)c1)CC2 [Example 208]
325	COCCN1C(=O)N(Cc2cccc(OC)c2)C(=O)C12CCN(Cc1cc(-c3ccccc3)ccc1OC)CC2 [Example 209]
333	COCCN1C(=O)N(Cc2cccc(OC)c2)C(=O)C12CCN(Cc1cccc3c1OCO3)CC2 [Example 210]
334	COc1cccc(CN2C(=O)N(CCn3cccc3)C3(CCN(Cc4cccc5ccccc45)CC3)C2=O)c1 [Example 211]
336	COCCN1C(=O)N(Cc2cccc(OC)c2)C(=O)C12CCN(Cc1ccc(C)c(C)c1)CC2 [Example 212]
337	COCCN1C(=O)N(Cc2cccc(OC)c2)C(=O)C12CCN(Cc1ccc3ccccc3c1)CC2 [Example 213]
344	CCN1C(=O)N(Cc2ccc3ccccc3c2)C(=O)C12CCN(Cc1cccc(OC)c1)CC2 [Example 214]
348	COCCN1C(=O)N(Cc2cc(OC)ccc2OC)C(=O)C12CCN(Cc1cc(OC)cc(OC)c1)CC2 [Example 215]
349	COc1cccc(CN2C(=O)N(CCCO)C3(CCN(Cc4cccc5ccccc45)CC3)C2=O)c1 [Example 216]
350	CCN1C(=O)N(CCCOc2ccccc2)C(=O)C12CCN(Cc1cc(OC)cc(OC)c1)CC2 [Example 217]
351	COCCN1C(=O)N(Cc2cccc(OC)c2)C(=O)C12CCN(Cc1cccc(-c3ccncc3)c1)CC2 [Example 218]
362	COCCN1C(=O)N(Cc2cccc(OC)c2)C(=O)C12CCN(Cc1ccc(OC)c(OC)c1C)CC2 [Example 219]
362	COCCN1C(=O)N(CCCOc2ccccc2)C(=O)C12CCN(Cc1cccc(OC)c1)CC2 [Example 220]
365	CCN1C(=O)N(CCCc2ccccc2)C(=O)C12CCN(Cc1cc(OC)cc(OC)c1)CC2 [Example 221]
366	COCCN1C(=O)N(CCCc2ccccc2OC)C(=O)C12CCN(Cc1ccccc1)CC2 [Example 222]
371	O=C1N(C/C=C/c2ccccc2)C(=O)C2(CCN(Cc3cccc4ccccc34)CC2)N1Cc1ccncc1 [Example 223]
371	COCCN1C(=O)N(Cc2cccc(OC)c2)C(=O)C12CCN(Cc1cccc(-c3ccc(S(C)(=O)=O)cc3)c1)CC2 [Example 224]
373	COCCN1C(=O)N(Cc2cccc(OC)c2)C(=O)C12CCN(Cc1cccc(N3CCCCC3)c1)CC2 [Example 225]
